Conditions: Pendant drop shape

CCCCCC[n+]1ccn(C)c1.N#C[C-](C#N)C#N [3-hexyl-1-methylimidazolium tricyanomethanide]
Conditions	surface tension liquid-gas [mN/m]
283.23 K	44.44
293.35 K	43.55
303.33 K	42.88
313.26 K	42.09
323.25 K	41.49
333.18 K	40.8
343.11 K	39.91
353.53 K	39.07

CCCCCCCCn1cc[n+](C)c1.N#C[B-](C#N)(C#N)C#N [1-methyl-3-octylimidazolium tetracyanoborate]
Conditions	surface tension liquid-gas [mN/m]
283.23 K	38.64
293.32 K	38.01
303.3 K	36.81
313.27 K	36.18
323.23 K	35.19
333.18 K	34.15
343.21 K	33.44
353.28 K	32.41

CCn1cc[n+](C)c1.N#C[B-](C#N)(C#N)C#N [1-ethyl-3-methylimidazolium tetracyanoborate]
Conditions	surface tension liquid-gas [mN/m]
283.1 K	49.66
293.26 K	48.72
303.35 K	47.57
313.29 K	46.45
323.2 K	45.67
333.09 K	44.87
343.12 K	44.04
353.45 K	43.4

CCCCCCn1cc[n+](C)c1.N#C[B-](C#N)(C#N)C#N [1-hexyl-3-methylimidazolium tetracyanoborate]
Conditions	surface tension liquid-gas [mN/m]
283.27 K	41.99
293.29 K	41.32
303.27 K	40.4
313.29 K	39.39
323.26 K	38.6
333.2 K	37.61
343.18 K	37
353.25 K	35.86

CCCCCCCCn1cc[n+](C)c1.N#CC(=C=[N-])C#N [1-methyl-3-octylimidazolium tricyanomethanide]
Conditions	surface tension liquid-gas [mN/m]
283.28 K	40.07
293.21 K	39.03
303.32 K	38.38
313.21 K	37.65
323.12 K	36.89
333.1 K	36.09
343.16 K	35.31
353.03 K	34.89

CCCCn1cc[n+](C)c1.N#C[B-](C#N)(C#N)C#N [1-butyl-3-methyl-1H-imidazolium tetracyanoborate]
Conditions	surface tension liquid-gas [mN/m]
283.23 K	45.23
293.23 K	44.64
303.3 K	43.65
313.24 K	42.62
323.24 K	41.71
333.2 K	40.81
343.22 K	39.87
353.3 K	39.08

Cn1cc[n+](C)c1.N#C[B-](C#N)(C#N)C#N [1,3-dimethylimidazolium tetracyanoborate]
Conditions	surface tension liquid-gas [mN/m]
283.19 K	35.44
293.24 K	34.74
303.28 K	33.67
313.26 K	33.07
323.17 K	32.05
333.17 K	31.37
343.13 K	30.6
353.24 K	29.98

CCn1cc[n+](C)c1.N#C[C-](C#N)C#N [1-ethyl-3-methyl-1H-imidazolium tricyanomethanide]
Conditions	surface tension liquid-gas [mN/m]
283.18 K	51.1
293.25 K	50.4
303.24 K	49.39
313.1 K	48.62
323.08 K	47.83
333.17 K	47.19
343.09 K	46.55
353.36 K	44.68

Source: the NIST ThermoML archive (doi:10.1021/acs.jced.5b00303)
